The text below walks through data of patent publication US20040002425A1, “Triketone derivatives and herbicides” (Idemitsu Kosan Co., Ltd., priority 1998, published 2004).

The test system of this series is Transplanted paddy rice plant. The series can be described thus: Biological Test 1 (treatment on the 3rd day after transplantation): chemical injury to paddy rice. More on the design: scale not given here. It counts as in vivo. Particulars: Treatment performed 3 days after transplantation. Put shortly:
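Compound formulated as 10% wettable powder, applied at a predetermined amount on day 3 after transplanting 2.5-leaf rice seedlings into flooded (3 cm) paddy-soil pots in a 20-25° C greenhouse. Chemical injury to rice scored against set criteria 30 days after treatment.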

Molecules are shown by their SMILES.

`CC(C)S(=O)(=O)C1=C(C(=O)c2ccc3c(c2Cl)CCS3(=O)=O)C(=O)CCC1` [B-29]: the “Chemical injury, Transplanted paddy rice plant” value (“Chemical injury” below) stood at 0 (dose 100 g/ha) and 0 (dose 200 g/ha).

`O=C1CCCC(Br)=C1C(=O)c1ccc2c(c1Cl)CCS2(=O)=O` [B-6]: the “Chemical injury” value is, setting by setting: (dose 100 g/ha) 0; (dose 200 g/ha) 0.

Consider `O=C1CCCC(Cl)=C1C(=O)c1ccc2c(c1Cl)CCCS2(=O)=O` [B-77], for which the “Chemical injury” value by setting is: (dose 100 g/ha) 0; (dose 200 g/ha) 0.

Turning to `CO/N=C1\CCS(=O)(=O)c2c(C)cc(C(=O)C3=C(S(=O)(=O)c4ccc(C)cc4)CCCC3=O)c(C)c21` [B-60, 4-methoxyimino-5,8-dimethyl-6-[3-(4-methylphenyl)sulfonyl-1-oxocyclohexan-2-yl]carbonylthiochroman-1,1-1,1-dioxide], the “Chemical injury” value turned out to be 0 (dose 100 g/ha) and 0 (dose 200 g/ha).

Turning to `Cc1ccccc1SC1=C(C(=O)c2ccc3c(c2Cl)CCS3(=O)=O)C(=O)CCC1` [B-16], the “Chemical injury” value is on record as 0 (dose 100 g/ha) and 0 (dose 200 g/ha).

Consider `CO/N=C1\CCS(=O)(=O)c2c(C)cc(C(=O)C3=C(Nc4ccc(C)cc4)CCCC3=O)c(C)c21` [B-58, 4-methoxyimino-5,8-dimethyl-6-[3-(4-methylphenyl)amino-1-oxocyclohexan-2-yl]carbonylthiochroman-1,1-1,1-dioxide], for which the “Chemical injury” value was 0 (dose 100 g/ha) and 0 (dose 200 g/ha).

Regarding `O=C1CCCC(SCc2ccccc2)=C1C(=O)c1ccc2c(c1Cl)CCS2(=O)=O` [B-11], the “Chemical injury” value runs as follows: (dose 100 g/ha) 0; (dose 200 g/ha) 0.

Turning to `Cc1cc(C(=O)C2=C(Sc3ccccc3)CCCC2=O)c(C)c2c1S(=O)(=O)CCC2OC(C)C` (centres unmarked) [B-68, 4-(2-propyl)oxy-5,8-dimethyl-6-(3-phenylthio-1-oxocyclohexan-2-yl)carbonylthiochroman-1,1-dioxide], the “Chemical injury” value is given as 0 (dose 100 g/ha) and 0 (dose 200 g/ha).

`O=C1CCCC(Sc2ccccc2)=C1C(=O)c1ccc2c(c1Cl)CCCS2(=O)=O` [B-78]: the “Chemical injury” value was found to be 0 (dose 100 g/ha) and 0 (dose 200 g/ha).

For the compound `Cc1cc(C(=O)C2=C(O)CCC(C)(C)C2=O)c(Cl)c2c1S(=O)(=O)CC2` [A-11, 4-chloro-7-methyl-5-(4,4-dimethyl-1,3-dioxocyclohexan-2-yl)carbonyl-2,3-dihydrobenzothiophene-1,1-dioxide], the “Chemical injury” value amounted to 1 (dose 100 g/ha, examined on the 30th day after treatment) and 3 (dose 200 g/ha, examined on the 30th day after treatment).
